# Where a SMILES comes first, the peptide text is derived from it. [ ]: non-standard residue; d: D form. pGlu = O=C1CC[C@@H](C(=O)O)N1; Thz = O=C(O)[C@@H]1CSCN1
# Key:
# Histamine H2 receptor = Histamine H2 receptor (Homo sapiens, UniProt P25021); assay type: functional, cell-based
# [1] = molecular target: T1, Alpha-1A adrenergic receptor (Homo sapiens, UniProt P35348); assay type: functional, cell-based
# T1 sequence (P35348 whole entry): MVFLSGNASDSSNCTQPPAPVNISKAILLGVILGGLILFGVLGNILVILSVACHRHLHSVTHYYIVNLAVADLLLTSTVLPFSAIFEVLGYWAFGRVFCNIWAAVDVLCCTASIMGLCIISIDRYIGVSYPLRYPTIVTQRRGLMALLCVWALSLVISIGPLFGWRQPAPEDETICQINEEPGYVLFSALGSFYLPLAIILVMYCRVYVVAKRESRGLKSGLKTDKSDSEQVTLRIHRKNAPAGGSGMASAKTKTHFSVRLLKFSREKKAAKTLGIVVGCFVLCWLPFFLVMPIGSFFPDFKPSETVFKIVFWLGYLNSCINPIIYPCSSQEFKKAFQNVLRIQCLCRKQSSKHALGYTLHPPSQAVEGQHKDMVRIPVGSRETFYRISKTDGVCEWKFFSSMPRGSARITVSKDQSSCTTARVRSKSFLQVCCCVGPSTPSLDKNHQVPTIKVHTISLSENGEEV
# Thromboxane A2 receptor = molecular target: T2, Thromboxane A2 receptor (Homo sapiens, UniProt P21731)
# T2 sequence (P21731 whole entry): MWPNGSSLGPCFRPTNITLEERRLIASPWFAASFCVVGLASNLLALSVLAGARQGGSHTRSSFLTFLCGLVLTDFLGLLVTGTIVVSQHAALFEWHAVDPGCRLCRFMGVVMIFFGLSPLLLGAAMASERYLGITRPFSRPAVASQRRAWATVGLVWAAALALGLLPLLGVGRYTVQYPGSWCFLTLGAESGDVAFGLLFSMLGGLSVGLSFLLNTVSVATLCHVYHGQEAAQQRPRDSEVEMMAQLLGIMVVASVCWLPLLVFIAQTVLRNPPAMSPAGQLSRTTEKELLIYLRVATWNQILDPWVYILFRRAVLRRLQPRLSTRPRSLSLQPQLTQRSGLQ
# [2] = molecular target: T3, Amine oxidase [flavin-containing] A (Homo sapiens, UniProt P21397); assay type: functional
# T3 sequence (P21397 whole entry): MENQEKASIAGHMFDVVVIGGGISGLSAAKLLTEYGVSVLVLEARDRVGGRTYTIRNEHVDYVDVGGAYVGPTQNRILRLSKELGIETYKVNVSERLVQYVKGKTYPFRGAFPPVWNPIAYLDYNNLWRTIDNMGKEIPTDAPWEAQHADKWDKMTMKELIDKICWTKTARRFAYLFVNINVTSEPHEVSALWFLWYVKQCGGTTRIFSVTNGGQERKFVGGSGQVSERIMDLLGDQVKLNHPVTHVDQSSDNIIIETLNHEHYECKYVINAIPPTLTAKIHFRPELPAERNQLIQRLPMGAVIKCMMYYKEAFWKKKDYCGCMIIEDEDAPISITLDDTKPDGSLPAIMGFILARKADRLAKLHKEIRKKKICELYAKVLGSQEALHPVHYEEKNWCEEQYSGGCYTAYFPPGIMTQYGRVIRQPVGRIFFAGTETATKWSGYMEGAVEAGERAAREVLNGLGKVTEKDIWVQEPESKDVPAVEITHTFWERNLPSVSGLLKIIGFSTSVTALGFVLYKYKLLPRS
# [3] = molecular target: Voltage-gated inwardly rectifying potassium channel KCNH2 (Homo sapiens, UniProt Q12809); assay type: functional
# [4] = molecular target: Glutamate receptor ionotropic, NMDA 1 (Rattus norvegicus, UniProt P35439)
# [5] = molecular target: T4, Alpha-2A adrenergic receptor (Homo sapiens, UniProt P08913); assay type: functional, cell-based
# T4 sequence (P08913 whole entry): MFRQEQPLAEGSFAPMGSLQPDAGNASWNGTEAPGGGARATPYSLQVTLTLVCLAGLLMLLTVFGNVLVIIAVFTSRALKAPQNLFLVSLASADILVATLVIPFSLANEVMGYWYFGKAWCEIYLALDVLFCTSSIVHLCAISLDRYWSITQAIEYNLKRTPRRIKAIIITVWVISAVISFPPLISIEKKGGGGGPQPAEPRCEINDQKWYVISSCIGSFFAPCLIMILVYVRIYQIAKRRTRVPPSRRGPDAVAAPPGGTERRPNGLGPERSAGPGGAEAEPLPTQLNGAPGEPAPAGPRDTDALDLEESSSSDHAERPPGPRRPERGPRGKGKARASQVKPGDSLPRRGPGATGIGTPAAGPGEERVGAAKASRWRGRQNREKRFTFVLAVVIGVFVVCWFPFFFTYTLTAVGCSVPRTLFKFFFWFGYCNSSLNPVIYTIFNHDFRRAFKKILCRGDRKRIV
# Glucocorticoid receptor = molecular target: T5, Glucocorticoid receptor (Homo sapiens, UniProt P04150)
# T5 sequence (P04150 whole entry): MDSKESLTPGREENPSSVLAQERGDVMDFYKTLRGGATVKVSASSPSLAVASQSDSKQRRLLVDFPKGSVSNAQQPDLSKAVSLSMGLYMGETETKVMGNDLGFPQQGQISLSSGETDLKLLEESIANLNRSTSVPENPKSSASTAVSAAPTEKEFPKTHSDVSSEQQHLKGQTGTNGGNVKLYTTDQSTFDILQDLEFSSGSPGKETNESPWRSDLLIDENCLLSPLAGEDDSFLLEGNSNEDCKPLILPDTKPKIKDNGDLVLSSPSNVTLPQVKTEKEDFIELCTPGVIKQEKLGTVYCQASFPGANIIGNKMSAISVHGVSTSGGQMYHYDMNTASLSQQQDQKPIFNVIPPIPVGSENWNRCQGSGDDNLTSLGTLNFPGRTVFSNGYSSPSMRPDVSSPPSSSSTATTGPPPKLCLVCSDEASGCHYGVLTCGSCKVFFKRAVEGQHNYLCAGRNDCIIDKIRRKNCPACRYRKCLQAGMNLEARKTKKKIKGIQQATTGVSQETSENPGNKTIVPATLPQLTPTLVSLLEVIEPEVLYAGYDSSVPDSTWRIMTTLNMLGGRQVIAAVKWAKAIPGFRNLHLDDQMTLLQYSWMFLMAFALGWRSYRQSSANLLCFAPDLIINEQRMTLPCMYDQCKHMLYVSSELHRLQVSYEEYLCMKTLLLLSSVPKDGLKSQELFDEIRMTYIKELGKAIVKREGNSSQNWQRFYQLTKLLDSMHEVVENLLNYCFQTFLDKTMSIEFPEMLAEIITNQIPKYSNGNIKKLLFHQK
# Further: assay procedure not described here.
# Sequence of Voltage-gated inwardly rectifying potassium channel KCNH2 (Q12809 whole entry): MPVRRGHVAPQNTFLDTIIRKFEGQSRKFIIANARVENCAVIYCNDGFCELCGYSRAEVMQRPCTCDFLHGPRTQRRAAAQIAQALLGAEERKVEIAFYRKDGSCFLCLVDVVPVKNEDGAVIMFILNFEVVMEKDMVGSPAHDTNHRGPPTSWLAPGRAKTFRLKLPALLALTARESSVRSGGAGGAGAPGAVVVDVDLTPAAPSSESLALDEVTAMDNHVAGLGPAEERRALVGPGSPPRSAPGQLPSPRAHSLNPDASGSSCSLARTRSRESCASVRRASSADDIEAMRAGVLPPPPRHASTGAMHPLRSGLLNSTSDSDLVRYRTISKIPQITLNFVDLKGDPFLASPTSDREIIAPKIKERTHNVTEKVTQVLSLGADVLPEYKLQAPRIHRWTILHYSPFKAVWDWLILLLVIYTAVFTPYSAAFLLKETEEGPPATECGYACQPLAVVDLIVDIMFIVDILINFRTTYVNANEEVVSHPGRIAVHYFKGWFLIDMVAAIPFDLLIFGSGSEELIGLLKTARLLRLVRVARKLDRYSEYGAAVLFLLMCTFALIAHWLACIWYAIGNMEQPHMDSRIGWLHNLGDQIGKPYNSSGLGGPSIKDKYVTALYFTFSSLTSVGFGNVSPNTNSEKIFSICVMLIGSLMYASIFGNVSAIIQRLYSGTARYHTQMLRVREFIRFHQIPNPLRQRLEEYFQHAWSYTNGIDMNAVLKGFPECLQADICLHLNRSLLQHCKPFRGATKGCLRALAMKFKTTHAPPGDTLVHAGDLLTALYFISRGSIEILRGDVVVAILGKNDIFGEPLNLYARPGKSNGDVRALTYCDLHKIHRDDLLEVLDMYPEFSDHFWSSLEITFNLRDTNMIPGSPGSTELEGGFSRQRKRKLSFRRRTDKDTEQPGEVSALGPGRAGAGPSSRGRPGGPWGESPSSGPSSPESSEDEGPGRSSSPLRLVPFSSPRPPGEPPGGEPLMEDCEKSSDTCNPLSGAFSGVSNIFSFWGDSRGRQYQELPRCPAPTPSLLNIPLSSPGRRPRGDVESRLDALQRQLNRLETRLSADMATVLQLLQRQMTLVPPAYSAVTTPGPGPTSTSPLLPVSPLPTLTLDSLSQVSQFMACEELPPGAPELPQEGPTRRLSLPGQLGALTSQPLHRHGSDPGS
# Sequence of Histamine H2 receptor (P25021 whole entry): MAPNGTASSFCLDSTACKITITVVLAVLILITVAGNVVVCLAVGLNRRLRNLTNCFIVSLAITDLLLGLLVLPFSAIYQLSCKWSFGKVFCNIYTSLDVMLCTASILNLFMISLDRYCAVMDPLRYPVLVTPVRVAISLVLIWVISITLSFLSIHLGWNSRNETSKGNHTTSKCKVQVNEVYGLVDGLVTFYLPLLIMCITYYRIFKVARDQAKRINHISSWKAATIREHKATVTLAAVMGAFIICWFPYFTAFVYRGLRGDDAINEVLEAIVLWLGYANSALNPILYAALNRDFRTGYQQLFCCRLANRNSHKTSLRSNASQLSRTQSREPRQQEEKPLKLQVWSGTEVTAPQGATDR
Structure (SMILES),AC50 (Histamine H2 receptor) [µM],AC50 [1] [µM],AC50 (Thromboxane A2 receptor) [µM],AC50 [2] [µM],AC50 [3] [µM],AC50 [4] [µM],AC50 [5] [µM],AC50 (Glucocorticoid receptor) [µM]
COc1ccc(CN2CCN(C(c3ccc(F)cc3)c3ccc(F)cc3)CC2)c(OC)c1OC [LOMERIZINE],> 30,> 30,> 30,> 30,0.45,> 30,> 30,> 30
O=C1Nc2ccc(Cl)cc2C(c2ccccc2Cl)=NC1O (stereo not given) [LORAZEPAM],> 10,> 30,> 30,> 10,> 30,> 10,> 10,> 30
CC(=O)[C@H]1CC[C@H]2[C@@H]3C[C@H](C)C4=CC(=O)CC[C@]4(C)[C@H]3[C@@H](O)C[C@]12C [MEDRYSONE],> 10,> 30,> 10,> 10,> 30,> 10,> 10,0.005
Cc1ccnc2c1NC(=O)c1cccnc1N2C1CC1 [NEVIRAPINE],> 10,> 30,> 30,> 10,> 30,> 10,> 10,> 30
O=C(NCCO[N+](=O)[O-])c1cccnc1 [NICORANDIL],> 30,> 30,> 30,> 30,> 30,> 30,> 30,> 30
O=c1[nH]c2ccccc2n1CCCN1CCN(C(c2ccccc2)c2ccccc2)CC1 [OXATOMIDE],> 30,> 30,> 30,> 30,0.026,> 30,> 30,> 30
C[C@]12C/C(=C/O)C(=O)C[C@@H]1CC[C@@H]1[C@@H]2CC[C@@]2(C)[C@H]1CC[C@]2(C)O [OXYMETHOLONE],> 30,> 30,> 30,> 30,> 30,> 30,> 30,21
c1ccc(C2(N3CCCCC3)CCCCC2)cc1 [PHENCYCLIDINE],> 30,> 30,> 30,> 30,12,0.288,> 30,> 30
OC[C@H]1O[C@@H](Oc2cc(O)cc(/C=C/c3ccc(O)cc3)c2)[C@H](O)[C@@H](O)[C@@H]1O [PICEID],> 30,> 30,> 30,> 30,> 30,> 30,> 30,> 30
O=C1CC[C@@H](C(=O)N2CSC[C@H]2C(=O)O)N1 [PIDOTIMOD] ([pGlu]-[Thz]-OH),> 30,> 30,> 30,> 30,> 30,> 30,> 30,> 30
COc1cc(C(=O)OCc2cccc(COC(=O)c3cc(OC)c(OC)c(OC)c3)n2)cc(OC)c1OC [PIROZADIL],> 30,> 30,> 30,> 30,> 30,> 30,> 30,> 30
CCC(NC(C)C)C(O)c1ccc(O)c2[nH]c(=O)ccc12 (stereo not given) [PROCATEROL],> 30,> 30,> 30,> 30,> 30,> 30,> 30,> 30
CCc1nc(N)nc(N)c1-c1ccc(Cl)cc1 [PYRIMETHAMINE],> 30,> 30,> 10,> 30,0.649,> 10,> 30,> 10
C=CC[N+]1([C@H]2C[C@H]3[C@@H]4CC[C@H]5C[C@H](O)[C@@H](N6CCOCC6)C[C@]5(C)[C@H]4CC[C@]3(C)[C@H]2OC(C)=O)CCCC1 [ROCURONIUM],> 30,> 30,> 30,> 30,1.06,> 30,> 30,> 30
CCN1CCCC1CNC(=O)c1cc(S(=O)(=O)CC)ccc1OC (stereo not given) [SULTOPRIDE],> 30,> 30,> 30,> 30,3.5,> 30,> 30,> 30
CCOC(=O)c1ccc(C#Cc2ccc3c(c2)C(C)(C)CCS3)nc1 [TAZAROTENE],> 30,> 30,> 30,> 10,> 30,> 10,> 10,> 30
Cn1c(=O)c2c(ncn2CCOC(=O)C(C)(C)Oc2ccc(Cl)cc2)n(C)c1=O [THEOFIBRATE],> 30,> 30,> 30,> 30,> 30,> 30,> 30,> 30
COc1cc(C(=O)NC2CCCNC2)cc(OC)c1OC (stereo not given) [TROXIPIDE],> 30,> 30,> 30,> 30,> 30,> 30,> 30,> 30
CC(C)(C)NCC(O)c1ccccc1Cl (stereo not given) [TULOBUTEROL],> 30,> 30,> 30,> 30,> 30,> 30,> 30,> 30
CC(C(=O)O)c1ccc2c(c1)CC(=O)c1ccccc1S2 (stereo not given) [ZALTOPROFEN],> 30,> 30,> 30,> 30,> 30,> 30,> 30,> 30
